Reference: patent publication US20220389007A1, “INHIBITORS OF HUMAN IMMUNODEFICIENCY VIRUS REPLICATION” (VIIV HEALTHCARE UK (No. 5) LIMITED, priority 2019, published 2022)

Assays:
recombinant NL4-3 virus = test: HIV cell culture assay (antiviral activity, luciferase readout); type: cell-based; details: Human immunodeficiency virus 1, NL43, MT2, MT-2 cells infected for 4-5 days with recombinant NL4-3 virus carrying Renilla luciferase
Procedure, shortened: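 MT-2 cells infected for 4-5 days with NL4-3 reference virus carrying Renilla luciferase in place of part of nef, in presence of serial compound dilutions. Luciferase read with live-cell substrate; EC50 from median effect equation fit.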

[1] = Compound cytotoxicity, XTT-based colorimetric assay; type: cell-based; details: human; uninfected MT2 cells, day 4, XTT assay
Procedure, shortened: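 Run under the antiviral-assay protocol but without virus. Viability was read on day 4 and CC50 values were derived from the readout.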

SMILES: Cn1nc(C(F)(F)F)cc1-c1ccc2c(=O)n(-c3ccc(Cl)c4c(NS(C)(=O)=O)nn(C)c34)c([C@H](Cc3cc(F)cc(F)c3)NC(=O)Cn3nc(C(F)F)c4c3C(F)(F)[C@@H]3C[C@H]43)nc2n1 (atropisomer, axis not shown; (P)) [Example 83, N-((S)-1-((3P)-3-(4-chloro-1-methyl-3-(methylsulfonamido)-1H-indazol-7-yl)-7-(1-methyl-3-(trifluoromethyl)-1H-pyrazol-5-yl)-4-oxo-3,4-dihydropyrido[2,3-d]pyrimidin-2-yl)-2-(3,5-difluorophenyl)ethyl)-2-((3bS,4aR)-3-(difluoromethyl)-5,5-difluoro-3b,4,4a,5-tetrahydro-1H-cyclopropa[3,4]cyclopenta[1,2-c]pyrazol-1-yl)acetamide]
- EC50 (recombinant NL4-3 virus): 0.07 nM
- CC50 at 4 day [1]: > 100 nM

SMILES: Cc1nc2ccc(-c3ccc4c(=O)n(-c5ccc(Cl)c6c(NS(C)(=O)=O)nn(C)c56)c([C@H](Cc5cc(F)cc(F)c5)NC(=O)Cn5nc(C(F)F)c6c5C(F)(F)[C@@H]5C[C@H]65)nc4n3)cc2s1 (atropisomer, axis not shown; (P)) [Example 67, N-((S)-1-((3P)-3-(4-chloro-1-methyl-3-(methylsulfonamido)-1H-indazol-7-yl)-7-(2-methylbenzo[d]thiazol-6-yl)-4-oxo-3,4-dihydropyrido[2,3-d]pyrimidin-2-yl)-2-(3,5-difluorophenyl)ethyl)-2-((3bS,4aR)-3-(difluoromethyl)-5,5-difluoro-3b,4,4a,5-tetrahydro-1H-cyclopropa[3,4]cyclopenta[1,2-c]pyrazol-1-yl)acetamide]
- EC50 (recombinant NL4-3 virus): 0.55 nM
- CC50 at 4 day [1]: > 100 nM

SMILES: Cn1nc(NS(C)(=O)=O)c2c(Cl)ccc(-n3c([C@H](Cc4cc(F)cc(F)c4)NC(=O)Cn4nc(C(F)F)c5c4C(F)(F)[C@@H]4C[C@H]54)nc4nc(-c5ccn(CC(F)(F)C(F)(F)F)n5)ccc4c3=O)c21 (atropisomer, axis not shown; (P)) [Example 88, N-((S)-1-((3P)-3-(4-chloro-1-methyl-3-(methylsulfonamido)-1H-indazol-7-yl)-4-oxo-7-(1-(2,2,3,3,3-pentafluoropropyl)-1H-pyrazol-3-yl)-3,4-dihydropyrido[2,3-d]pyrimidin-2-yl)-2-(3,5-difluorophenyl)ethyl)-2-((3bS,4aR)-3-(difluoromethyl)-5,5-difluoro-3b,4,4a,5-tetrahydro-1H-cyclopropa[3,4]cyclopenta[1,2-c]pyrazol-1-yl)acetamide]
- EC50 (recombinant NL4-3 virus): 0.079 nM
- CC50 at 4 day [1]: > 100 nM

SMILES: Cn1nc(NS(C)(=O)=O)c2c(Cl)ccc(-n3c([C@H](Cc4cc(F)cc(F)c4)NC(=O)Cn4nc(C(F)F)c5c4C(F)(F)[C@@H]4C[C@H]54)nc4nc(-c5cnn(CCF)c5)ccc4c3=O)c21 (atropisomer, axis not shown; (P)) [Example 76, N-((S)-1-((3P)-3-(4-chloro-1-methyl-3-(methylsulfonamido)-1H-indazol-7-yl)-7-(1-(2-fluoroethyl)-1H-pyrazol-4-yl)-4-oxo-3,4-dihydropyrido[2,3-d]pyrimidin-2-yl)-2-(3,5-difluorophenyl)ethyl)-2-((3bS,4aR)-3-(difluoromethyl)-5,5-difluoro-3b,4,4a,5-tetrahydro-1H-cyclopropa[3,4]cyclopenta[1,2-c]pyrazol-1-yl)acetamide]
- EC50 (recombinant NL4-3 virus): 0.11 nM
- CC50 at 4 day [1]: > 100 nM

SMILES: Cc1ccnc(-c2ccc3c(=O)n(-c4ccc(Cl)c5c(NS(C)(=O)=O)nn(C)c45)c([C@H](Cc4cc(F)cc(F)c4)NC(=O)Cn4nc(C(F)F)c5c4C(F)(F)[C@@H]4C[C@H]54)nc3n2)n1 (atropisomer, axis not shown; (P)) [Example 10, N-((S)-1-((3P)-3-(4-chloro-1-methyl-3-(methylsulfonamido)-1H-indazol-7-yl)-7-(4-methylpyrimidin-2-yl)-4-oxo-3,4-dihydropyrido[2,3-d]pyrimidin-2-yl)-2-(3,5-difluorophenyl)ethyl)-2-((3bS,4aR)-3-(difluoromethyl)-5,5-difluoro-3b,4,4a,5-tetrahydro-1H-cyclopropa[3,4]cyclopenta[1,2-c]pyrazol-1-yl)acetamide]
- EC50 (recombinant NL4-3 virus): 0.03 nM
- CC50 at 4 day [1]: > 100 nM

SMILES: COc1ncc(-c2ccc3c(=O)n(-c4ccc(Cl)c5c(NS(C)(=O)=O)nn(C)c45)c([C@H](Cc4cc(F)cc(F)c4)NC(=O)Cn4nc(C(F)F)c5c4C(F)(F)[C@@H]4C[C@H]54)nc3n2)s1 (atropisomer, axis not shown; (P)) [Example 82, N-((S)-1-((3P)-3-(4-chloro-1-methyl-3-(methylsulfonamido)-1H-indazol-7-yl)-7-(2-methoxythiazol-5-yl)-4-oxo-3,4-dihydropyrido[2,3-d]pyrimidin-2-yl)-2-(3,5-difluorophenyl)ethyl)-2-((3bS,4aR)-3-(difluoromethyl)-5,5-difluoro-3b,4,4a,5-tetrahydro-1H-cyclopropa[3,4]cyclopenta[1,2-c]pyrazol-1-yl)acetamide]
- EC50 (recombinant NL4-3 virus): 0.069 nM
- CC50 at 4 day [1]: > 100 nM

SMILES: Cn1nc(NS(C)(=O)=O)c2c(Cl)ccc(-n3c([C@H](Cc4cc(F)cc(F)c4)NC(=O)Cn4nc(C(F)F)c5c4C(F)(F)[C@@H]4C[C@H]54)nc4nc(-c5ncc(Cl)nc5Cl)ccc4c3=O)c21 (atropisomer, axis not shown; (P)) [Example 57, N-((S)-1-((3P)-3-(4-chloro-1-methyl-3-(methylsulfonamido)-1H-indazol-7-yl)-7-(3,5-dichloropyrazin-2-yl)-4-oxo-3,4-dihydropyrido[2,3-d]pyrimidin-2-yl)-2-(3,5-difluorophenyl)ethyl)-2-((3bS,4aR)-3-(difluoromethyl)-5,5-difluoro-3b,4,4a,5-tetrahydro-1H-cyclopropa[3,4]cyclopenta[1,2-c]pyrazol-1-yl)acetamide]
- EC50 (recombinant NL4-3 virus): 0.073 nM
- CC50 at 4 day [1]: > 100 nM

SMILES: Cn1nc(NS(C)(=O)=O)c2c(Cl)ccc(-n3c([C@H](Cc4cc(F)cc(F)c4)NC(=O)Cn4nc(C(F)F)c5c4C(F)(F)[C@@H]4C[C@H]54)nc4nc(-c5cccc(C(F)F)c5)ccc4c3=O)c21 (atropisomer, axis not shown; (P)) [Example 23, N-((S)-1-((3P)-3-(4-chloro-1-methyl-3-(methylsulfonamido)-1H-indazol-7-yl)-7-(3-(difluoromethyl)phenyl)-4-oxo-3,4-dihydropyrido[2,3-d]pyrimidin-2-yl)-2-(3,5-difluorophenyl)ethyl)-2-((3bS,4aR)-3-(difluoromethyl)-5,5-difluoro-3b,4,4a,5-tetrahydro-1H-cyclopropa[3,4]cyclopenta[1,2-c]pyrazol-1-yl)acetamide]
- EC50 (recombinant NL4-3 virus): 0.11 nM
- CC50 at 4 day [1]: > 100 nM

SMILES: Cn1nccc1-c1ccc2c(=O)n(-c3ccc(Cl)c4c(NS(C)(=O)=O)nn(C)c34)c([C@H](Cc3cc(F)cc(F)c3)NC(=O)Cn3nc(C(F)F)c4c3C(F)(F)[C@@H]3C[C@H]43)nc2n1 (atropisomer, axis not shown; (P)) [Example 68, N-((S)-1-((3P)-3-(4-chloro-1-methyl-3-(methylsulfonamido)-1H-indazol-7-yl)-7-(1-methyl-1H-pyrazol-5-yl)-4-oxo-3,4-dihydropyrido[2,3-d]pyrimidin-2-yl)-2-(3,5-difluorophenyl)ethyl)-2-((3bS,4aR)-3-(difluoromethyl)-5,5-difluoro-3b,4,4a,5-tetrahydro-1H-cyclopropa[3,4]cyclopenta[1,2-c]pyrazol-1-yl)acetamide]
- EC50 (recombinant NL4-3 virus): 0.049 nM
- CC50 at 4 day [1]: > 100 nM

SMILES: Cn1nc(NS(C)(=O)=O)c2c(Cl)ccc(-n3c([C@H](Cc4cc(F)cc(F)c4)NC(=O)Cn4nc(C(F)F)c5c4C(F)(F)[C@@H]4C[C@H]54)nc4nc(-c5cc(C(F)(F)F)cc(C(F)(F)F)n5)ccc4c3=O)c21 (atropisomer, axis not shown; (P)) [Example 14, N-((S)-1-(7-(4,6-bis(trifluoromethyl)pyridin-2-yl)-(3P)-3-(4-chloro-1-methyl-3-(methylsulfonamido)-1H-indazol-7-yl)-4-oxo-3,4-dihydropyrido[2,3-d]pyrimidin-2-yl)-2-(3,5-difluorophenyl)ethyl)-2-((3bS,4aR)-3-(difluoromethyl)-5,5-difluoro-3b,4,4a,5-tetrahydro-1H-cyclopropa[3,4]cyclopenta[1,2-c]pyrazol-1-yl)acetamide]
- EC50 (recombinant NL4-3 virus): 0.28 nM
- CC50 at 4 day [1]: > 100 nM

SMILES: Cn1nc(NS(C)(=O)=O)c2c(Cl)ccc(-n3c([C@H](Cc4cc(F)cc(F)c4)NC(=O)Cn4nc(C(F)F)c5c4C(F)(F)[C@@H]4C[C@H]54)nc4nc(-c5ccc(F)cc5C(F)(F)F)ccc4c3=O)c21 (atropisomer, axis not shown; (P)) [Example 22, N-((S)-1-((3P)-3-(4-chloro-1-methyl-3-(methylsulfonamido)-1H-indazol-7-yl)-7-(4-fluoro-2-(trifluoromethyl)phenyl)-4-oxo-3,4-dihydropyrido[2,3-d]pyrimidin-2-yl)-2-(3,5-difluorophenyl)ethyl)-2-((3bS,4aR)-3-(difluoromethyl)-5,5-difluoro-3b,4,4a,5-tetrahydro-1H-cyclopropa[3,4]cyclopenta[1,2-c]pyrazol-1-yl)acetamide]
- EC50 (recombinant NL4-3 virus): 0.052 nM
- CC50 at 4 day [1]: > 100 nM

SMILES: Cn1nc(NS(C)(=O)=O)c2c(Cl)ccc(-n3c([C@H](Cc4cc(F)cc(F)c4)NC(=O)Cn4nc(C(F)F)c5c4C(F)(F)[C@@H]4C[C@H]54)nc4nc(-c5ccncc5)ccc4c3=O)c21 (atropisomer, axis not shown; (P)) [Example 34, N-((S)-1-((3P)-3-(4-chloro-1-methyl-3-(methylsulfonamido)-1H-indazol-7-yl)-4-oxo-7-(pyridin-4-yl)-3,4-dihydropyrido[2,3-d]pyrimidin-2-yl)-2-(3,5-difluorophenyl)ethyl)-2-((3bS,4aR)-3-(difluoromethyl)-5,5-difluoro-3b,4,4a,5-tetrahydro-1H-cyclopropa[3,4]cyclopenta[1,2-c]pyrazol-1-yl)acetamide]
- EC50 (recombinant NL4-3 virus): 0.07 nM
- CC50 at 4 day [1]: > 100 nM
